Results: patent US9663513B2, “Pyrimidine PDE10 inhibitors” (Merck Sharp & Dohme Corp., priority 2012, dated 2017)

Biological target: human PDE10A2 (Homo sapiens (Human), UniProt Q9Y233)
Experiment: PDE10 fluorescence polarization (IMAP FP) inhibition assay
Type: biochemical
Details: human PDE10A2 from transfected AD293 cells; FAM-labeled cAMP 50 nM; apparent inhibition constant; read-out: PDE10A Ki
Procedure, shortened: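 Cytoplasmic lysate of AD293 cells transiently expressing human PDE10A2 (enzyme level giving 20% conversion) incubated with 50 nM FAM-cAMP in pH 7.2 Tris/MgCl2 buffer, 30 min at room temperature. IMAP binding solution added, FP read after ≥1 h; 10-point 3-fold compound titrations fitted to a four-parameter equation.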

Sequence of human PDE10A2 (Q9Y233 267-1055): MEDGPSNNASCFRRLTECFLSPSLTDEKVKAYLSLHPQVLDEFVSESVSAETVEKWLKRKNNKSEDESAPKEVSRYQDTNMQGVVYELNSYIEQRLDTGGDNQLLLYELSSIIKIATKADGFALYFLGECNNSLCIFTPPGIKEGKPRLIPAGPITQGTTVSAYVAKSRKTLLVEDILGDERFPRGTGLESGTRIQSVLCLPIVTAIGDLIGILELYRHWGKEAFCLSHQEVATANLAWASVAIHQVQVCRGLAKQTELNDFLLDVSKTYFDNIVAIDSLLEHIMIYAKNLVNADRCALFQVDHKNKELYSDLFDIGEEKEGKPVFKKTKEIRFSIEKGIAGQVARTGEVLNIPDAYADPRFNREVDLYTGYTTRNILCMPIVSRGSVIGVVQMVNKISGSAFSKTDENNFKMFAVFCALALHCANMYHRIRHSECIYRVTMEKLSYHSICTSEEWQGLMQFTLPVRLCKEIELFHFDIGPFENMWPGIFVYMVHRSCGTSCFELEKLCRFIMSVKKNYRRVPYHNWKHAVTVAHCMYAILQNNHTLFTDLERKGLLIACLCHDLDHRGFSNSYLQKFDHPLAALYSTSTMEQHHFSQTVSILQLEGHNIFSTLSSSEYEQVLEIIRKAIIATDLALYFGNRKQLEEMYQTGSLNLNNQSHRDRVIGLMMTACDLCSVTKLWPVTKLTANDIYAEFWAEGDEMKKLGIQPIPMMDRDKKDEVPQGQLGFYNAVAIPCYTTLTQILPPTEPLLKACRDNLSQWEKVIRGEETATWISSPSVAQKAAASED

| SMILES | Ki |
| --- | --- |
| CC[C@]1(O)CC[C@H](c2cnc(C)nc2OC[C@H]2C[C@@H]2c2ccc(C)cn2)CC1 [Example 215, (trans)1-Ethyl-4-(2-methyl-4-(((1S,2S)-2-(5-methylpyridin-2-1)cyclopropyl)methoxy)pyrimidin-5-yl)cyclohexanol] | 15.3 nM |
| CCn1nnnc1-c1ccc(-c2cnc(C)nc2OC[C@H]2C[C@@H]2c2ccc(OC)cn2)cc1 [Example 226, 5-(4-(1-ethyl-1H-tetrazol-5-yl)phenyl)-4-(((1S,2S)-2-(5-methoxypyridin-2-yl)cyclopropyl)methoxy)-2-methylpyrimidine] | 0.77 nM |
| COc1ccc([C@H]2C[C@@H]2COc2nc(C)ncc2-c2ccc(C(=O)O)cc2)nc1 [Example 172, 4-(4-(((1S,2S)-2-(5-methoxypyridin-2-yl)cyclopropyl)methoxy)-2-methylpyrimidin-5-yl)benzoic acid] | 0.29 nM |
| COc1ccc([C@H]2C[C@@H]2COc2nc(C)ncc2-c2cnsc2)nc1 [Example 73, 4-(4-(((1S,2S)-2-(5-methoxypyridin-2-yl)cyclopropyl)methoxy)-2-methylpyrimidin-5-yl)isothiazole] | 1.13 nM |
| COc1ccc([C@H]2C[C@@H]2COc2nc(C)ncc2-c2ccc(C3(O)COC3)nc2)nc1 [Example 91] | 0.16 nM |
| Cc1cccc([C@H]2C[C@@H]2COc2nc(C)ncc2-c2ccc(C(C)(C)O)nc2)n1 [Example 176, 2-(5-(2-methyl-4-(((1S,2S)-2-(6-methylpyridin-2-yl)cyclopropyl)methoxy)pyrimidin-5-yl)pyridin-2-yl)propan-2-ol] | 14.8 nM |
| Cc1ccc([C@H]2C[C@@H]2COc2nc(C)ncc2-c2ccc(C(C)O)nc2)nc1 (stereo partly drawn) [Example 148, 1-(5-(2-methyl-4-(((1S,2S)-2-(5-methylpyridin-2-yl)cyclopropyl)methoxy)pyrimidin-5-yl)pyridin-2-yl)ethanol] | 0.98 nM |
| CCc1ccc(-c2cnc(C)nc2OC[C@H]2C[C@@H]2c2ccc(OC)cn2)cn1 [Example 85, 5-(6-ethylpyridin-3-yl)-4-(((1S,2S)-2-(5-methoxypyridin-2-yl)cyclopropyl)methoxy)-2-methylpyrimidine] | 0.86 nM |
| COC(=O)c1cnc(-c2cnc(C)nc2OC[C@H]2C[C@@H]2c2ccc(OC)cn2)cn1 [Example 97, methyl 5-(4-(((1S,2S)-2-(5-methoxypyridin-2-yl)cyclopropyl)methoxy)-2-methylpyrimidin-5-yl)pyrazine-2-carboxylate] | 9.74 nM |
| COc1ccc([C@H]2C[C@@H]2COc2nc(C)ncc2-c2cn(C)[nH]c2=O)nc1 [Example 244, 4-(4-(((1S,2S)-2-(5-methoxypyridin-2-yl)cyclopropyl)methoxy)-2-methylpyrimidin-5-yl)-1-methyl-1,2-dihydropyrazol-3-one] | 0.71 nM |
| COc1cc(-c2cnc(C)nc2OC[C@H]2C[C@@H]2c2ccc(C)cn2)cc2nccn12 [Example 132, 5-methoxy-7-(2-methyl-4-(((1S,2S)-2-(5-methylpyridin-2-yl)cyclopropyl)methoxy)pyrimidin-5-yl)imidazo[1,2-a]pyridine] | 0.81 nM |
| CCc1ccc([C@@H]2C[C@@H]2COc2nc(C)ncc2C2CCC(=O)CC2)nc1 [Example 195, 4-(4-(((1S,2R)-2-(5-ethylpyridin-2-yl)cyclopropyl)methoxy)-2-methylpyrimidin-5-yl)cyclohexanone] | 3.48 nM |
| Cc1ccc([C@H]2C[C@@H]2COc2nc(C)ncc2-c2ccnc(F)c2)nc1 [Example 19, 5-(2-fluoropyridin-4-yl)-2-methyl-4-(((1S,2S)-2-(5-methylpyridin-2-yl)cyclopropyl)methoxy)pyrimidine] | 0.55 nM |
| COc1ccc([C@H]2C[C@@H]2COc2nc(C)ncc2-c2cnc(C(C)(C)O)cn2)nc1 [Example 66, 2-(5-(4-(((1S,2S)-2-(5-methoxypyridin-2-yl)cyclopropyl)methoxy)-2-methylpyrimidin-5-yl)pyrazin-2-yl)propan-2-ol] | 3.14 nM |
| COc1ccc([C@H]2C[C@@H]2COc2nc(C)ncc2-c2ccc(C#N)cc2)nc1 [Example 171, 4-(4-(((1S,2S)-2-(5-methoxypyridin-2-yl)cyclopropyl)methoxy)-2-methylpyrimidin-5-yl)benzonitrile] | 1.19 nM |
| COc1ccc([C@H]2C[C@@H]2COc2nc(C)ncc2-c2ccc(C(=O)NCCO)nc2)nc1 [Example 106, N-(2-hydroxyethyl)-5-(4-(((1S,2S)-2-(5-methoxypyridin-2-yl)cyclopropyl)methoxy)-2-methylpyrimidin-5-yl)picolinamide] | 0.64 nM |
| Cc1ccc([C@H]2C[C@@H]2COc2nc(C)ncc2-c2ccc(=O)oc2)nc1 [Example 50, 5-(2-methyl-4-(((1S,2S)-2-(5-methylpyridin-2-yl)cyclopropyl)methoxy)pyrimidin-5-yl)-2H-pyran-2-one] | 4.28 nM |
| COc1ccc([C@H]2C[C@@H]2COc2nc(C)ncc2-c2cc(Cl)ncc2OCOCC[Si](C)(C)C)nc1 [Example 112, 5-(2-chloro-5-((2-(trimethylsilyl)ethoxy)methoxy)pyridin-4-yl)-4-(((1S,2S)-2-(5-methoxypyridin-2-yl)cyclopropyl)methoxy)-2-methylpyrimidine] | 19.2 nM |

| SMILES | Ki |
| --- | --- |
| Cc1ccc([C@H]2C[C@@H]2COc2nc(C)ncc2-c2cnc(C)cc2C)nc1 [Example 55, 5-(4,6-dimethylpyridin-3-yl)-2-methyl-4-(((1S,2S)-2-(5-methylpyridin-2-yl)cyclopropyl)methoxy)pyrimidine] | 0.87 nM |
| Cc1ccc([C@H]2C[C@@H]2COc2nc(C)ncc2-c2cn(C)nc2C(O)C(F)F)nc1 (stereo partly drawn) [Example 170, 2,2-difluoro-1-(1-methyl-4-(2-methyl-4-(((1S,2S)-2-(5-methylpyridin-2-yl)cyclopropyl)methoxy)pyrimidin-5-yl)-1H-pyrazol-3-yl)ethanol] | 1.48 nM |
| COc1cccc([C@H]2C[C@@H]2COc2nc(C)ncc2C2CCC(=O)CC2)n1 [Example 202, 4-(4-(((1S,2S)-2-(6-methoxypyridin-2-yl)cyclopropyl)methoxy)-2-methylpyrimidin-5-yl)cyclohexanone] | 2.96 nM |
| Cc1ccc([C@H]2C[C@@H]2COc2nc(C)ncc2-c2ccc3[nH]ccc3c2)nc1 [Example 48, 5-(2-methyl-4-(((1S,2S)-2-(5-methylpyridin-2-yl)cyclopropyl)methoxy)pyrimidin-5-yl)-1H-indole] | 3.25 nM |
| Cc1ncc(C2CCC3(CC2)OCCO3)c(OC[C@H]2C[C@H]2c2ccccn2)n1 [Example 198, 2-methyl-4-(((1S,2R)-2-(pyridin-2-yl)cyclopropyl)methoxy)-5-(1,4-dioxaspiro[4.5]decan-8-yl)pyrimidine] | 27.6 nM |
| Cc1ccnc([C@H]2C[C@@H]2COc2nc(C)ncc2-c2cn(C)nc2C(C)O)c1 (stereo partly drawn) [Example 159, 1-(1-methyl-4-(2-methyl-4-(((1S,2S)-2-(4-methylpyridin-2-yl)cyclopropyl)methoxy)pyrimidin-5-yl)-1H-pyrazol-3-yl)ethanol] | 1.47 nM |
| Cc1cccc([C@H]2C[C@@H]2COc2nc(C)ncc2C2CCC3(CC2)OCCO3)n1 [Example 186, 2-methyl-4-(((1S,2S)-2-(6-methylpyridin-2-yl)cyclopropyl)methoxy)-5-(1,4-dioxaspiro[4.5]decan-8-yl)pyrimidine] | 6.67 nM |
| COc1ccc([C@H]2C[C@@H]2COc2nc(C)ncc2-c2nn[nH]n2)nc1 [Example 234, 4-(((1S,2S)-2-(5-methoxypyridin-2-yl)cyclopropyl)methoxy)-2-methyl-5-(2H-tetrazol-5-yl)pyrimidine] | 9.43 nM |
| C=Cc1cnc(C)nc1OC[C@H]1C[C@@H]1c1ccc(C)cn1 [Example 54, 2-methyl-4-(((1S,2S)-2-(5-methylpyridin-2-yl)cyclopropyl)methoxy)-5-vinylpyrimidine] | 10.4 nM |
| Cc1ccc([C@H]2C[C@@H]2COc2nc(C)ncc2-c2ccc(C(F)(F)F)cc2)nc1 [Example 10, 2-methyl-4-(((1S,2S)-2-(5-methylpyridin-2-yl)cyclopropyl)methoxy)-5-(4-(trifluoromethyl)phenyl)pyrimidine] | 5.71 nM |
| COc1ccc([C@H]2C[C@@H]2COc2nc(C)ncc2C2(F)CCCCC2)nc1 [Example 211, 5-(1-fluorocyclohexyl)-4-(((1S,2S)-2-(5-methoxypyridin-2-yl)cyclopropyl)methoxy)-2-methylpyrimidine] | 19.4 nM |
| COc1ccc([C@H]2C[C@@H]2COc2nc(C)ncc2-c2cc(Cl)ncc2OC)nc1 [Example 111, 5-(2-chloro-5-methoxypyridin-4-yl)-4-(((1S,2S)-2-(5-methoxypyridin-2-yl)cyclopropyl)methoxy)-2-methylpyrimidine] | 0.79 nM |
| COc1ccc([C@H]2C[C@@H]2COc2nc(C)ncc2-c2cnc(CO)cn2)nc1 [Example 98, (5-(4-(((1S,2S)-2-(5-methoxypyridin-2-yl)cyclopropyl)methoxy)-2-methylpyrimidin-5-yl)pyrazin-2-yl)methanol] | 12 nM |
| Cc1ncc(-c2ccc(C(C)(C)O)nc2)c(OC[C@H]2C[C@@H]2c2ccccn2)n1 [Example 123, 2-(5-(2-methyl-4-(((1S,2S)-2-(pyridin-2-yl)cyclopropyl)methoxy)pyrimidin-5-yl)pyridin-2-yl)propan-2-ol] | 1.09 nM |
| Cc1ncc(-c2ccc(C(C)(C)O)nc2)c(OC[C@@H]2C[C@H]2c2ccc(Br)cn2)n1 [Example 124, 2-(5-(4-(((1R,2R)-2-(5-bromopyridin-2-yl)cyclopropyl)methoxy)-2-methylpyrimidin-5-yl)pyridin-2-yl)propan-2-ol] | 8.57 nM |
| Cc1ncc(-c2ccc(CO)nc2)c(OC[C@H]2C[C@@H]2c2ccc3ccccc3n2)n1 [Example 154, (5-(2-methyl-4-(((1S,2S)-2-(quinolin-2-yl)cyclopropyl)methoxy)pyrimidin-5-yl)pyridin-2-yl)methanol] | 0.01 nM |
| Cc1ccc([C@H]2C[C@@H]2COc2nc(C)ncc2-c2cnsc2)nc1 [Example 62, 4-(2-methyl-4-(((1S,2S)-2-(5-methylpyridin-2-yl)cyclopropyl)methoxy)pyrimidin-5-yl)isothiazole] | 2.02 nM |
